# According to patent publication US20220324835A1 (Nurix Therapeutics, Inc., priority 2018, published 2022):
# Assays:
# T-cell [1] = assay: IL-2 secretion from T-cells stimulated with anti-CD3 antibody alone (Biological Example 2); format: cell-based; conditions: primary human total T-cells, read-out: IL-2 secretion, Anti-CD3 stimulation, fold change over baseline; for fold induction at 1 µM: 1 μM compound; for fold induction at 8 µM: 8 μM compound
# Cbl-b [2] = molecular target: T1, Cbl-b (Homo sapiens, UniProt Q13191); assay: Cbl-b activity assay (Cbl-b inhibition assay), TR-FRET of Cbl-b interaction with UbcH5B-Ub; format: biochemical; conditions: assay buffer with 100 mM NaCl, 60 nM Src kinase; read-out: Cbl-b activity IC50
# T1 sequence (Q13191 36-427): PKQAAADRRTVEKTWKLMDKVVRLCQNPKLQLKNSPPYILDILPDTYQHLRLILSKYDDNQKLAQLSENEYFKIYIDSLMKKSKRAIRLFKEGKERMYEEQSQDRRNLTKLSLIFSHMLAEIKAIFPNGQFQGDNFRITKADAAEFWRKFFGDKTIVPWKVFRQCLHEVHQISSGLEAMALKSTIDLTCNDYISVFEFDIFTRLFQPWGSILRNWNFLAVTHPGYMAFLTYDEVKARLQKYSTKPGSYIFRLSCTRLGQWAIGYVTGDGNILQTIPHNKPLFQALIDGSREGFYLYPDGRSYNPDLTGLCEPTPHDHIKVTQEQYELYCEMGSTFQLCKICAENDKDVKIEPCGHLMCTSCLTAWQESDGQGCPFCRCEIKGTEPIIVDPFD
# How it was run: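 Compound-treated Cbl-b was incubated 1.5 h with Src kinase (60 nM final; 30 nM for asterisked values, which also used 50 mM instead of 100 mM NaCl), 1 mM ATP and 5 mM MgCl2. Binding to fluorescent Ub-loaded UbcH5B (C85K mutant) was then read by TR-FRET after 1 h more.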
# T-cell [3] = assay: CD25 cell surface staining on T-cells co-stimulated with anti-CD3 and anti-CD28 antibody (Biological Example 2); format: cell-based, human; conditions: Homo sapiens, T-cell, primary human total T-cells, baseline = anti-CD3/anti-CD28 stimulated cells without inhibitor, read-out: CD25 staining, Anti-CD3/Anti-CD28 stimulation, fold change over baseline; for fold induction at 0.3 µM: 0.3 μM compound; for fold induction at 1 µM: 1 μM compound; for fold induction at 4 µM: 4 μM compound
# How it was run: (§1)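 Values are fold-change over baseline: readings (IL-2 release, CD25 staining) from inhibitor-treated T-cells divided against untreated cells […]. No detailed procedure stated.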
# Cbl-b [4] = molecular target: T1, Cbl-b; assay: Cbl-b inhibition assay (Cbl-b activity assay, FRET, Biological Example 1; 100 mM NaCl, 60 nM Src kinase); format: biochemical; conditions: upper bound stated in text lists; read-out: IC50 values in the Cbl-b inhibition assay of Biological Example 1
# How it was run: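 Steps: Src kinase phosphorylates N-terminal biotinylated Avi-tagged Cbl-b; phosphorylated Cbl-b binds Bodipy-fluorescein ubiquitin-loaded UbcH5B; streptavidin-terbium on Cbl-b sits close to the fluorescein label, producing FRET. Inhibitors block UbcH5B-Ub binding.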
# T-cell [5] = assay: CD25 cell surface staining on T-cells stimulated with anti-CD3 antibody alone (Biological Example 2); format: cell-based; conditions: primary human total T-cells, baseline = anti-CD3/anti-CD28 stimulated cells without inhibitor, read-out: CD25 staining, Anti-CD3 stimulation, fold change over baseline; for fold induction at 1 µM: 1 μM compound; for fold induction at 8 µM: 8 μM compound
# T-cell [6] = assay: IL-2 secretion from T-cells co-stimulated with anti-CD3 and anti-CD28 antibody (Biological Example 2); format: cell-based, human; conditions: Homo sapiens, T-cell, primary human total T-cells, baseline = anti-CD3/anti-CD28 stimulated cells without inhibitor, read-out: IL-2 secretion, Anti-CD3/Anti-CD28 stimulation, fold change over baseline; for fold induction at 0.3 µM: 0.3 μM compound; for fold induction at 1 µM: 1 μM compound; for fold induction at 4 µM: 4 μM compound
# How it was run: as §1
Structure (SMILES),fold induction at 1 µM (T-cell [1]),IC50 (Cbl-b [2]),fold induction at 0.3 µM (T-cell [3]),fold induction at 1 µM (T-cell [3]),IC50 (Cbl-b [4]),fold induction at 1 µM (T-cell [5]),fold induction at 0.3 µM (T-cell [6]),fold induction at 1 µM (T-cell [6]),fold induction at 8 µM (T-cell [1]),fold induction at 4 µM (T-cell [3]),fold induction at 8 µM (T-cell [5]),fold induction at 4 µM (T-cell [6])
"CCOc1cc([C@@](C)(F)C(F)(F)c2nncn2C)cc(NC(=O)c2cc(C)nc(C3CC3)n2)n1 [Compound 469, 2-cyclopropyl-N-{6-ethoxy-4-[(2R)-1,1,2-trifluoro-1-(4-methyl-4H-1,2,4-triazol-3-yl)propan-2-yl]pyridin-2-yl}-6-methylpyrimidine-4-carboxamide]",0.101 to 0.15,100 to 300 nM,1.01 to 1.3,1.01 to 1.3,≤ 300 nM,0.801 to 1,1.01 to 2.5,1.01 to 2.5,,,,
"CN1CCN(c2cc3c(c(C(F)(F)F)c2)CN(c2cccc(C4(Cc5nncn5C)COC4)c2)C3=O)C(=O)C1 [Compound 391, 6-(4-Methyl-2-oxopiperazin-1-yl)-2-(3-(3-((4-methyl-4H-1,2,4-triazol-3-yl)methyl)oxetan-3-yl)phenyl)-4-(trifluoromethyl)isoindolin-1-one]",0.051 to 0.1,< 100 nM,1.01 to 1.3,1.01 to 1.3,≤ 100 nM,0.801 to 1,1.01 to 2.5,1.01 to 2.5,,,,
"Cn1cnnc1C(F)(F)[C@](C)(F)c1cccc(N2Cc3c(cc(CN4CC(C(F)F)C4)cc3C(F)(F)F)C2=O)c1 [Compound 453, (R)-6-((3-(difluoromethyl)azetidin-1-yl)methyl)-2-(3-(1,1,2-trifluoro-1-(4-methyl-4H-1,2,4-triazol-3-yl)propan-2-yl)phenyl)-4-(trifluoromethyl)isoindolin-1-one]",> 0.201,< 100 nM,1.31 to 1.5,1.31 to 1.5,≤ 100 nM,> 1,5 to 7.5,> 7.5,0.151 to 0.2,1.31 to 1.5,> 1,> 7.5
"Cn1cnnc1CC1(c2cccc(N3Cc4c(cc(CN5CC6CC6(C)C5)cc4C(F)(F)F)C3=O)c2)COC1 (stereo not drawn) [Compound 491, 6-((1-methyl-3-azabicyclo[3.1.0]hexan-3-yl)methyl)-2-(3-(3-((4-methyl-4H-1,2,4-triazol-3-yl)methyl)oxetan-3-yl)phenyl)-4-(trifluoromethyl)isoindolin-1-one]",> 0.201,< 100 nM,1.01 to 1.3,1.01 to 1.3,≤ 100 nM,> 1,> 7.5,> 7.5,,,,
"C[C@H]1CN(C)CCN1c1cc2c(c(C(F)(F)F)c1)CN(c1cccc(C3(Cc4nncn4C)COC3)c1)C2=O [Compound 389, (S)-6-(2,4-Dimethylpiperazin-1-yl)-2-(3-(3-((4-methyl-4H-1,2,4-triazol-3-yl)methyl)oxetan-3-yl)phenyl)-4-(trifluoromethyl)isoindolin-1-one]",> 0.201,< 100 nM,1.01 to 1.3,1.31 to 1.5,≤ 100 nM,> 1,5 to 7.5,> 7.5,,,,
"C[C@H](Cc1nocc1C(F)(F)F)c1cccc(N2Cc3c(cc(CN4CC[C@H](F)C4)cc3C(F)(F)F)C2=O)c1 [Compound 485, 6-[[(3S)-3-fluoropyrrolidin-1-yl]methyl]-4-(trifluoromethyl)-2-[3-[(2R)-1-[4-(trifluoromethyl)-1,2-oxazol-3-yl]propan-2-yl]phenyl]-2,3-dihydro-1H-isoindol-1-one]",< 0.05,100 to 300 nM,1.01 to 1.3,1.01 to 1.3,≤ 300 nM,0.601 to 0.8,1.01 to 2.5,1.01 to 2.5,0.101 to 0.15,1.31 to 1.5,> 1,2.51 to 5
"CN(c1cc2c(c(C(F)(F)F)c1)CN(c1cccc([C@@](C)(F)C(F)(F)c3nncn3C)c1)C2=O)[C@H]1CNC[C@H]1F [Example 549, 6-(((3S,4R)-4-fluoropyrrolidin-3-yl)(methyl)amino)-2-(3-((R)-1,1,2-trifluoro-1-(4-methyl-4H-1,2,4-triazol-3-yl)propan-2-yl)phenyl)-4-(trifluoromethyl)iso-indolin-1-one]",0.151 to 0.2,100 to 300 nM,1.01 to 1.3,1.31 to 1.5,≤ 300 nM,0.801 to 1,1.01 to 2.5,2.51 to 5,,,,
"C[C@H](Cc1nncn1C)c1cccc(N2Cc3c(cc([C@@H]4CCCNC4)cc3C(F)(F)F)C2=O)c1 [Compound 382, 2-(3-((R)-1-(4-methyl-4H-1,2,4-triazol-3-yl)propan-2-yl)phenyl)-6-((S)-piperidin-3-yl)-4-(trifluoromethyl)isoindolin-1-one]",0.101 to 0.15,100 to 300 nM,1.01 to 1.3,1.31 to 1.5,≤ 300 nM,0.601 to 0.8,2.51 to 5,5 to 7.5,> 0.201,1.51 to 1.75,> 1,5 to 7.5
"C[C@H](Cc1nncn1C)c1cccc(N2Cc3c(cc([C@@H](C)N4CC(O)C4)cc3C(F)(F)F)C2=O)c1 [Compound 405, 6-((R)-1-(3-hydroxyazetidin-1-yl)ethyl)-2-(3-((R)-1-(4-methyl-4H-1,2,4-triazol-3-yl)propan-2-yl)phenyl)-4-(trifluoromethyl)isoindolin-1-one]",> 0.201,< 100 nM,1.01 to 1.3,1.31 to 1.5,≤ 100 nM,0.801 to 1,2.51 to 5,5 to 7.5,> 0.201,1.31 to 1.5,> 1,> 7.5
"CN1CCN(c2cc3c(c(C(F)(F)F)c2)CN(c2cccc([C@@](C)(F)C(F)(F)c4nncn4C)c2)C3=O)CC1 [Compound 441, (R)-6-(4-Methylpiperazin-1-yl)-2-(3-(1,1,2-trifluoro-1-(4-methyl-4H-1,2,4-triazol-3-yl)propan-2-yl)phenyl)-4-(trifluoromethyl)isoindolin-1-one]",0.051 to 0.1,100 to 300 nM,1.01 to 1.3,1.01 to 1.3,≤ 300 nM,0.601 to 0.8,1.01 to 2.5,1.01 to 2.5,0.151 to 0.2,1.01 to 1.3,> 1,2.51 to 5
"C[C@H](c1cc2c(c(C(F)(F)F)c1)CN(c1cccc(C3([C@H](F)c4nncn4C)COC3)c1)C2=O)N1CCC2(CC2)C1 (single isomer, unassigned) [Compound 516]",> 0.201,< 100 nM,> 1.76,> 1.76,≤ 100 nM,> 1,> 7.5,> 7.5,,,,
Cn1cnnc1CC1(c2cccc(N3Cc4c(cc(CN5CC(C(=O)O)C5)cc4C(F)(F)F)C3=O)c2)COC1 [Compound 428],0.151 to 0.2,< 100 nM,1.01 to 1.3,1.01 to 1.3,≤ 100 nM,0.801 to 1,1.01 to 2.5,1.01 to 2.5,> 0.201,1.01 to 1.3,> 1,1.01 to 2.5
